This is an account of results in paper PMC9665079, “Structure-activity exploration of a small-molecule allosteric inhibitor of T790M/L858R double mutant EGFR” (Journal of Enzyme Inhibition and Medicinal Chemistry, 2022).

One test concerns wt EGFR H1299 cell line. Also noted: method as in PMID 29766737. The following applies: read-out: IC50 anti-proliferative activity; cited from earlier work.
Test [1] concerns T790M/L858R double mutant EGFR. More on the design: method as in PMID 29766737. The following applies: type III allosteric inhibitor of T790M/L858R double mutant EGFR; cited from earlier work.
The target in another test is T1, EGFR(T790M/L858R) (Homo sapiens, UniProt P00533, L858R/T790M).
T1 construct: purchased BPS Bioscience 40322
The test is described as follows: In vitro non-radioactive kinase assay, EGFR(T790M/L858R) Kinase Assay Kit (BPS Bioscience). The following applies: for IC50: EGFR(T790M/L858R) Kinase Assay Kit, concentration inhibiting 50% enzyme activity, read-out: IC50 (μM) ± Std. Dev.; for Activity on mutant EGFR in kinase assay (in words): compared with compound 4, five independent experiments. The test is classed as biochemical. As to the method:
In vitro kinase assays were performed using the EGFR(T790M/L858R) Kinase Assay Kit (BPS
Bioscience, Cat. #40322) in the presenc e of compounds or vehicle . Assays conditions were set
according to the manufacturer’s instructions. Dose -response curves were fitted by non -linear
regression of normalized enzyme activity vs log[inhibitor] data, using GraphPad Prism software. […]

Test [2] has as its system double mutant H1975 cell line. More on the design: method as in PMID 29766737. The following applies: read-out: IC50 anti-proliferative activity; cited from earlier work.
Test [3] relates to mutant EGFR H1650 cell line. More on the design: method as in PMID 29766737. To be noted: read-out: IC50 anti-proliferative activity; cited from earlier work.
Test [4] deals with H1975 lung cancer cell line expressing the double mutant L858R/T790M EGFR. The test is described as follows: Cell proliferation / viability by MTS assay in H1975 cells. The test is classed as cell-based. The following applies: 72 hours, micromolar concentrations. On the procedure:
Compounds 15 and 18 were then tested in cell proliferation assays on the H1975 lung cancer cell line expressing the double mutant L858R/T790M EGFR.
(§1) Figure 3. Activity of compounds 15 and 18 in H1975 cells. (A) Cell viability was measured by MTS assay. (B) EGFR phosphorylation was assessed by Western blot after 8-h incubation with the compounds (10 µM). Total EGFR and actin are shown for loading control. […]
(§2) 3-nitroaniline 1a (119 mg); 4-fluoro-3-(iminomethyl)phenyl acetate 2h (181 mg); 5-fluoro-2-methyl-1H-indole 3b (149 mg); purification: procedur b, […]
In vitro kinase assays were performed using the EGFR(T790M/L858R) Kinase Assay Kit (BPS Bioscience, Cat. #40322) in the presenc e of compounds or vehicle . Assays conditions were set according to the manufacturer’s instructions. […]
(§3) For cytotoxicity assays, compounds were added to cells in 96-well plates for 72 hours. Cell viability was measured by MTS assay using the CellTiter 96® AQueous One Solution Cell Proliferation Assay System (Promega, Madison, WI, USA) according to instructions. Inhibition of EGFR was assessed by Western blotting after incubating the cells with the compounds for 8 hours. […]
(§4) Chemiluminescence was detected using a ChemiDoc XRS+ System (Bio-Rad, Hercules, CA, USA) and Image Lab software (Bio-Rad). […]
(Tetrazolium dyes change colour on reduction, which living cells bring about.)

The test system of test [5] is phospho-EGFR (Tyr1068) in H1975 cells. In words: EGFR phosphorylation by Western blot in H1975 cells. It counts as cell-based. To be noted: Western blot after 8-h incubation, 10 µM. On the procedure: as §1, §2
In vitro kinase assays were performed using the EGFR(T790M/L858R) Kinase Assay Kit (BPS Bioscience, Cat. #40322) in the presenc e of compounds or vehicle . Assays conditions were set according to the manufacturer’s instructions. Dose -response curves were fitted by non -linear regression of normalized enzyme activity vs log[inhibitor] data, using GraphPad Prism software.
as §3, §4
In general terms: Immunoblotting shows a protein as a band on a membrane.

Molecules are shown by their SMILES.

On to `Cc1[nH]c2ccccc2c1C(Nc1cccc([N+](=O)[O-])c1)c1ccccn1` (stereo not shown) [Compound 4], for which the IC50 (commonly the midpoint of a concentration-inhibition curve) is 14.5 ± 0.3 µM with wt EGFR H1299 cell line, 154 ± 11 µM at EGFR(T790M/L858R), 24 ± 2 µM in test [2] and 19 ± 2 µM in test [3]. For the same compound, the EC50 (usually the concentration at which the effect is half-maximal) in test [1] was 6.2 ± 0.5 µM.

In the case of `Cc1[nH]c2ccc(F)cc2c1C(Nc1cccc([N+](=O)[O-])c1)c1ccccn1` (stereo not shown) [Compound 7], the half-maximal inhibitory concentration (IC50) at EGFR(T790M/L858R) was found to be 123 ± 17 µM.

In the case of `O=[N+]([O-])c1cccc(NC(c2ccccn2)c2c[nH]c3ccccc23)c1` (stereo not shown) [Compound 8], the IC50 at EGFR(T790M/L858R) is 95 ± 31 µM.

For `Cc1[nH]c2ccccc2c1C(Nc1cccc([N+](=O)[O-])c1)c1ncccc1O` (stereo not shown) [Compound 12], the IC50 at EGFR(T790M/L858R) was found to be 96 ± 30 µM.

Take `Cc1[nH]c2ccccc2c1C(Nc1cccc([N+](=O)[O-])c1)c1ccccc1` (stereo not shown) [Compound 13]: at EGFR(T790M/L858R), the “Activity on mutant EGFR in kinase assay (in words)” value (shortened to “Activity on mutant EGFR”) is “lack of activity”.

In the case of `COc1ccc(F)cc1C(Nc1cccc([N+](=O)[O-])c1)c1c(C)[nH]c2ccccc12` (stereo not shown) [Compound 14], on EGFR(T790M/L858R), the “Activity on mutant EGFR” value is listed as “lack of activity”.

Consider `Cc1[nH]c2ccccc2c1C(Nc1cccc([N+](=O)[O-])c1)c1ccccc1O` (stereo not shown) [Compound 15], for which the “Inhibition of cell proliferation (in words)” value in test [4] was “inhibited cell proliferation”. Also, at EGFR(T790M/L858R), the IC50 came out at 33 ± 4 µM and the “Activity on mutant EGFR” value is “significantly improved activity with respect to 4”. Further, the “Inhibition of EGFR phosphorylation (in words)” value in test [5] is “inhibited”.

For `Cc1[nH]c2ccccc2c1C(Nc1cccc([N+](=O)[O-])c1)c1cc(F)ccc1O` (stereo not shown) [Compound 17], the half-maximal inhibitory concentration (IC50) on EGFR(T790M/L858R) was 63 ± 12 µM.

For `Cc1[nH]c2ccccc2c1C(Nc1cccc([N+](=O)[O-])c1)c1cc(O)ccc1F` (stereo not shown) [Compound 18], the “Inhibition of cell proliferation (in words)” value in test [4] is given as “inhibited cell proliferation”. For the same compound, at EGFR(T790M/L858R), the IC50 turned out to be 27 ± 5 µM and the “Activity on mutant EGFR” value was “significantly improved activity with respect to 4”. In addition, the “Inhibition of EGFR phosphorylation (in words)” value in test [5] is given as “inhibited”.
